Test systems include SK-OV-3 ovarian; CAKI-1 renal; UACC-62 melanoma; A498 renal; NCI-H23 lung; HCC-2998 colon; NCI-H522 lung; PC-3 prostate; MDA-MB-231 breast; SF-268 CNS.
Holding throughout (assay): NCI tumour cell line growth inhibition, 48 h

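All cell lines were grown in 96-well plates and treated with compound for 48 hours. Abbreviation: GI50, concentration required for 50% inhibition of growth. Definition used: TGI = concentration required for complete inhibition of growth.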

For `COc1cc(/C=C2/Oc3c(OC)cccc3C2=O)ccc1O`, the TGI with SK-OV-3 ovarian, in the assay with CAKI-1 renal, in the assay with UACC-62 melanoma, in the assay on A498 renal, with NCI-H23 lung and in the assay with HCC-2998 colon was > 100 µM in each case. Further, the TGI in the assay with NCI-H522 lung, with PC-3 prostate, in the assay with MDA-MB-231 breast and with SF-268 CNS was > 100 µM throughout.
In the case of `CCN(CC)CCNc1ccc([N+](=O)[O-])c2sc3cc(Cl)ccc3c(=O)c12`, the GI50 is 3.33 µM in the assay with SK-OV-3 ovarian; 3.11 µM in the assay with UACC-62 melanoma; 5.31 µM with A498 renal; 13.9 µM in the assay with NCI-H23 lung; 11.1 µM with HCC-2998 colon; 9.01 µM in the assay with NCI-H522 lung. In addition, the GI50 in the assay on PC-3 prostate was 2.65 µM; in the assay with MDA-MB-231 breast it was 1.74 µM; with SF-268 CNS, 9.88 µM. Moreover, the TGI in the assay with SK-OV-3 ovarian is 96.5 µM; in the assay with UACC-62 melanoma, > 100 µM; in the assay with A498 renal, 25.6 µM; in the assay on NCI-H23 lung, > 100 µM; in the assay with HCC-2998 colon, > 100 µM; with NCI-H522 lung, > 100 µM. For the same compound, the values for the TGI with PC-3 prostate, in the assay with MDA-MB-231 breast and with SF-268 CNS were > 100 µM, 5.01 µM and 46.9 µM, respectively.
As for `NC(Cc1ccccc1CP(=O)(O)O)C(=O)O` (stereo not drawn), the TGI with SK-OV-3 ovarian, in the assay with CAKI-1 renal, in the assay with UACC-62 melanoma, with NCI-H23 lung, with HCC-2998 colon and with NCI-H522 lung was > 100 µM throughout. The TGI with PC-3 prostate, in the assay on MDA-MB-231 breast and in the assay with SF-268 CNS was > 100 µM in each case.
For the compound `COc1ccc(CC[N+]2(C)COc3cc4oc(=O)cc(C)c4cc3C2)cc1OC` (stereo not drawn), the TGI in the assay on SK-OV-3 ovarian, with CAKI-1 renal, with UACC-62 melanoma, in the assay with A498 renal, with NCI-H23 lung and in the assay on HCC-2998 colon was > 100 µM throughout. Further, the TGI with NCI-H522 lung, with PC-3 prostate, in the assay with MDA-MB-231 breast and in the assay with SF-268 CNS was > 100 µM in each case.
On to `C(=C\c1c2oc(-c3ccccc3)cc(-c3ccccc3)c-2c2ccccc12)/C=C1\c2ccccc2-c2c(-c3ccccc3)cc(-c3ccccc3)[o+]c21`, for which the TGI in the assay on SK-OV-3 ovarian, in the assay on UACC-62 melanoma, in the assay on A498 renal, in the assay on NCI-H23 lung, with HCC-2998 colon and with NCI-H522 lung was > 100 µM each time. In the assay with SF-268 CNS, the TGI is > 100 µM.
In the case of `Cc1ccc(NCCN(C)C)c2c(=O)c3cc(O)ccc3sc12`, the TGI with SK-OV-3 ovarian worked out at 9.84 µM; in the assay with CAKI-1 renal, 11.6 µM; in the assay with UACC-62 melanoma it was 9.78 µM; in the assay on A498 renal, 21.9 µM; with NCI-H23 lung it was 16.8 µM; with HCC-2998 colon, 10.4 µM. The TGI in the assay with NCI-H522 lung is 11.1 µM; in the assay on PC-3 prostate it was 11.1 µM; with MDA-MB-231 breast it was 4.6 µM; with SF-268 CNS, 15.6 µM.
Consider `Cc1ncc(CSC(=N)N)n1Cc1ccccc1`, for which the TGI with SK-OV-3 ovarian is > 100 µM; in the assay with CAKI-1 renal, > 100 µM; in the assay on UACC-62 melanoma, > 100 µM; in the assay on A498 renal, > 100 µM; in the assay with NCI-H23 lung, > 100 µM; with NCI-H522 lung, 64.4 µM. Also, the TGI with PC-3 prostate, in the assay with MDA-MB-231 breast and with SF-268 CNS was > 100 µM each time.
Turning to `CCOC(=O)c1csc(NC(=O)C(C)N2CCOCC2)n1` (stereo not drawn), the TGI in the assay on SK-OV-3 ovarian, in the assay on CAKI-1 renal, with UACC-62 melanoma, in the assay on A498 renal, in the assay with NCI-H23 lung and in the assay on HCC-2998 colon was > 100 µM throughout. Moreover, the TGI in the assay with PC-3 prostate and in the assay on MDA-MB-231 breast was > 100 µM throughout.
Take `O=S(=O)(O)c1cc(O)c(N=Nc2ccc3ccccc3c2O)c2ccccc12`: the TGI in the assay on SK-OV-3 ovarian was > 100 µM; with CAKI-1 renal, 70.6 µM; in the assay on UACC-62 melanoma, 42.3 µM; in the assay with NCI-H23 lung, 30.8 µM; in the assay with NCI-H522 lung, 40.2 µM; in the assay on PC-3 prostate it was > 100 µM. Also, the TGI in the assay with MDA-MB-231 breast was determined as 94.7 µM; in the assay on SF-268 CNS, 58.7 µM.
As for `c1cncc([O][Ge]([O]c2cccnc2)([O]c2cccnc2)[O]c2cccnc2)c1`, the GI50 in the assay on SK-OV-3 ovarian, in the assay on CAKI-1 renal, in the assay on UACC-62 melanoma, in the assay with NCI-H23 lung and with HCC-2998 colon was > 100 µM in each case. In addition, the TGI in the assay on SK-OV-3 ovarian, in the assay with CAKI-1 renal, in the assay on UACC-62 melanoma, in the assay with NCI-H23 lung and in the assay on HCC-2998 colon was > 100 µM in each case.
As for `CC(C)=CC(=O)c1c(C(=O)O)nc2ccccc2[n+]1[O-]`, the TGI in the assay with SK-OV-3 ovarian, in the assay with CAKI-1 renal, in the assay on UACC-62 melanoma, with A498 renal, in the assay with NCI-H23 lung and in the assay on HCC-2998 colon was > 100 µM each time. In the assay with SF-268 CNS, the TGI was > 100 µM.
As to `CC(C)=CCC/C(C)=C/C=C/C(C)=C/C1C[C@@]2(C(O)O1)[C@H](CCCO)/C(=C(/C)C=O)CC[C@]2(C)O` (stereo partly drawn), the TGI in the assay on CAKI-1 renal amounted to 25.6 µM; in the assay on HCC-2998 colon, 29.4 µM; with NCI-H522 lung, 36.7 µM; in the assay on SF-268 CNS it was 33.3 µM.
Turning to `CC(=O)[C@]1(O)Cc2c(O)c3c(c(O)c2[C@@H](OC2CC(N)C(O)C(C)O2)C1)C(=O)c1c(OCc2ccccc2)cccc1C3=O` (stereo partly drawn), the TGI was 21.2 µM with SK-OV-3 ovarian; 12 µM in the assay with CAKI-1 renal; 5.63 µM with UACC-62 melanoma; 21.8 µM with A498 renal; 6.9 µM in the assay with NCI-H23 lung; 2.63 µM in the assay with HCC-2998 colon. Moreover, the TGI in the assay with NCI-H522 lung was 5.19 µM; in the assay with PC-3 prostate, 2.64 µM; with MDA-MB-231 breast it was 3.45 µM; with SF-268 CNS, 11.7 µM.
With `O=C(O)/C=C/c1ccncc1`, the TGI in the assay on SK-OV-3 ovarian, with CAKI-1 renal, in the assay on UACC-62 melanoma, with A498 renal, in the assay with NCI-H23 lung and with HCC-2998 colon was > 100 µM each time. In addition, the TGI with NCI-H522 lung and in the assay with SF-268 CNS was > 100 µM each time.
Consider `COc1cc2c(cc1OCCCOc1ccc(-c3cc4ccccc4c4ccccc34)cc1)N=C[C@@H]1CCCN1C2=O`, for which the GI50 is 1.6 µM with SK-OV-3 ovarian; 0.535 µM in the assay on CAKI-1 renal; 0.632 µM with UACC-62 melanoma; 0.894 µM with A498 renal; 1.41 µM in the assay with NCI-H23 lung; 1.21 µM in the assay with HCC-2998 colon. Moreover, the results for the GI50 with MDA-MB-231 breast and in the assay with SF-268 CNS were 0.291 µM and 0.86 µM, respectively. Moreover, the TGI in the assay with SK-OV-3 ovarian came out at 3.26 µM; in the assay with CAKI-1 renal it was 1.65 µM; in the assay on UACC-62 melanoma, 2.09 µM; with A498 renal, 2.16 µM; in the assay with NCI-H23 lung, 2.74 µM; in the assay on HCC-2998 colon, 2.45 µM. Also, the values for the TGI with MDA-MB-231 breast and with SF-268 CNS were 1.27 µM and 2.08 µM, respectively.
`CC1(Cl)CC(C)(/C=C/Cl)C(Cl)CC1Cl` (stereo not drawn): the TGI in the assay on SK-OV-3 ovarian came out at 66.4 µM; with CAKI-1 renal, 33.3 µM; in the assay on UACC-62 melanoma it was 34.1 µM; in the assay with A498 renal it was 34 µM; with NCI-H23 lung, 44.1 µM; with HCC-2998 colon it was 32 µM. In addition, the TGI in the assay on NCI-H522 lung was determined as 31.6 µM; with SF-268 CNS, 31.1 µM.
For `C[n+]1c(-c2ccc(/C=N/NC(=O)C(=O)N/N=C/c3ccc(-c4cn5ccccc5[n+]4C)cc3)cc2)cn2ccccc21`, the TGI in the assay with SK-OV-3 ovarian, in the assay on CAKI-1 renal, in the assay with UACC-62 melanoma, in the assay with A498 renal, in the assay with NCI-H23 lung and in the assay with HCC-2998 colon was > 100 µM throughout. The TGI with NCI-H522 lung, with PC-3 prostate and in the assay on MDA-MB-231 breast was > 100 µM throughout.
In the case of `Cc1ccc(NC(=O)C(=O)Cc2cccc[n+]2[O-])cc1C`, the TGI in the assay with SK-OV-3 ovarian, in the assay on CAKI-1 renal, in the assay with UACC-62 melanoma, in the assay with A498 renal, with NCI-H23 lung and in the assay on HCC-2998 colon was > 100 µM each time. The TGI in the assay with NCI-H522 lung and in the assay with SF-268 CNS was > 100 µM each time.
For the compound `C/C(=N\NC(=S)N1CCOCC1)c1nc2ncccc2[nH]1`, the TGI in the assay on SK-OV-3 ovarian, in the assay with CAKI-1 renal, in the assay with UACC-62 melanoma, in the assay with A498 renal, with NCI-H23 lung and in the assay with HCC-2998 colon was > 100 µM in each case. The TGI was 59.3 µM with NCI-H522 lung, > 100 µM with PC-3 prostate, > 100 µM in the assay on MDA-MB-231 breast and > 100 µM in the assay with SF-268 CNS.
In the case of `CC1CCCN1CCCOC(=O)c1ccc(OC2C=CCCC2)cc1` (stereo not drawn), the TGI in the assay on SK-OV-3 ovarian is > 100 µM; in the assay on UACC-62 melanoma it was > 100 µM; in the assay with A498 renal, > 100 µM; with NCI-H23 lung, 63.3 µM; with HCC-2998 colon, 64.9 µM; in the assay with NCI-H522 lung, 54 µM. In addition, the values for the TGI with PC-3 prostate, in the assay with MDA-MB-231 breast and in the assay on SF-268 CNS were 78.9 µM, 47.8 µM and > 100 µM, respectively.
